Assay results from ChEMBL document CHEMBL5154696, “Efficient targeted oncogenic KRASG12C degradation via first reversible-covalent PROTAC” (Eur J Med Chem, 2022).
Active and inactive are the calls of the source. The calls are words filed in the database; no cut-off is given here.

Legend:
NCI-H358 = assay: Antiproliferative activity against human NCI-H358 cells harboring KRAS G12C mutant measured after 72 hrs by CCK-8 assay; assay type: functional, cell-based; details: NCI-H358, 72 h
NCI-H23 = assay: Antiproliferative activity against human NCI-H23 cells harboring KRAS G12C mutant measured after 72 hrs by CCK-8 assay; assay type: functional, cell-based; details: NCI-H23, 72 h
A549 = assay: Antiproliferative activity against human A549 cells harboring KRAS G12S mutant measured after 72 hrs by CCK-8 assay; assay type: functional, cell-based; details: A549, 72 h
GTPase KRas = GTPase KRas (Homo sapiens, UniProt P01116, G12C); assay: Inhibition of KRAS G12C mutant (unknown origin) assessed as inhibition of SOS1-catalyzed nucleotide exchange measured by HTRF assay
[1] = system: GTPase KRas (Homo sapiens), P01116 [G12C]; assay: Reversible covalent binding affinity to KRAS G12C mutant (unknown origin) incubated for 2 hrs and measured by MALDI-TOF-MS analysis
[2] = system: von Hippel-Lindau disease tumor suppressor/GTPase KRas (Homo sapiens), P01116+P40337 [G12C]; assay: Protac activity at VHL/KRAS G12C mutant in human NCI-H23 cells assessed as induction of KRAS G12C mutant degradation by measuring downregulation of phospho-ERK protein level at 3 uM measured after 24 hrs by Western blot analysis; assay type: cell-based
[3] = system: von Hippel-Lindau disease tumor suppressor/GTPase KRas (Homo sapiens), P01116+P40337 [G12C]; assay: Protac activity at VHL/KRAS G12C mutant in human NCI-H23 cells assessed as induction of KRAS G12C mutant degradation by measuring downregulation of KRAS G12C protein level at 3 uM measured after 24 hrs by Western blot analysis; assay type: cell-based
[4] = target: T1, von Hippel-Lindau disease tumor suppressor/GTPase KRas (Homo sapiens, UniProt P01116+P40337, G12C); assay: Protac activity at VHL/KRAS G12C mutant in human NCI-H358 cells assessed as induction of KRAS G12C mutant degradation by measuring downregulation of KRAS G12C protein level measured after 24 hrs by Western blot analysis; assay type: cell-based
[5] = target: T1, von Hippel-Lindau disease tumor suppressor/GTPase KRas; assay: Protac activity at VHL/KRAS G12C mutant in human NCI-H23 cells assessed as induction of KRAS G12C mutant degradation by measuring downregulation of KRAS G12C protein level measured after 24 hrs by Western blot analysis; assay type: cell-based
[6] = system: von Hippel-Lindau disease tumor suppressor/GTPase KRas (Homo sapiens), P01116+P40337 [G12C]; assay: Protac activity at VHL/KRAS G12C mutant in human NCI-H358 cells assessed as induction of KRAS G12C mutant degradation by measuring downregulation of KRAS G12C protein level at 3 uM in presence of cycloheximide measured after 24 hrs by Western blot analysis; assay type: cell-based
[7] = system: von Hippel-Lindau disease tumor suppressor/GTPase KRas (Homo sapiens), P01116+P40337 [G12C]; assay: Protac activity at VHL/KRAS G12C mutant in human NCI-H358 cells assessed as induction of KRAS G12C mutant degradation by measuring downregulation of phospho-ERK protein level at 3 uM measured after 24 hrs by Western blot analysis; assay type: cell-based
[8] = target: T1, von Hippel-Lindau disease tumor suppressor/GTPase KRas; assay: Protac activity at VHL/KRAS G12C mutant in human NCI-H358 cells assessed as induction of KRAS G12C mutant degradation by measuring downregulation of phospho-ERK protein level measured after 24 hrs by Western blot analysis; assay type: cell-based
[9] = target: T1, von Hippel-Lindau disease tumor suppressor/GTPase KRas; assay: Protac activity at VHL/KRAS G12C mutant in human NCI-H23 cells assessed as induction of KRAS G12C mutant degradation by measuring downregulation of phospho-ERK protein level measured after 24 hrs by Western blot analysis; assay type: cell-based
[10] = system: von Hippel-Lindau disease tumor suppressor/GTPase KRas (Homo sapiens), P01116+P40337 [G12C]; assay: Protac activity at VHL/KRAS G12C mutant in human NCI-H358 cells assessed as induction of KRAS G12C mutant degradation by measuring downregulation of KRAS G12C protein level at 3 uM measured after 24 hrs by Western blot analysis; assay type: cell-based

Chain of GTPase KRas (P01116 whole entry G12C): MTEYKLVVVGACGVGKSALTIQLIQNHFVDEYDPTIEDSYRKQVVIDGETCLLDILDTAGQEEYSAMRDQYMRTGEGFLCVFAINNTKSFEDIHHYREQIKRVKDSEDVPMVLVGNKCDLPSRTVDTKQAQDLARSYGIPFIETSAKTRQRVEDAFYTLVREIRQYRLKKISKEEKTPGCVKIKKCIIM
T1 sequence (P01116 whole entry G12C, stated change not applied): as the sequence (P01116 whole entry G12C) above
T1 sequence (P40337 whole entry, stated change not applied): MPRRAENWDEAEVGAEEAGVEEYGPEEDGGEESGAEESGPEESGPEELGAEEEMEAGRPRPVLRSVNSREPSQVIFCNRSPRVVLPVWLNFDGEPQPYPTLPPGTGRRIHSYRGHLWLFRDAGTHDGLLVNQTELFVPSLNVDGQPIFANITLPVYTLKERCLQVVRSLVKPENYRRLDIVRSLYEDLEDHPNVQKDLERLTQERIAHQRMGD
Chain of GTPase KRas (Homo sapiens), P01116 [G12C] (P01116 whole entry G12C): as the sequence (P01116 whole entry G12C) above

Row | SMILES | IC50 (NCI-H358) [µM] | IC50 (NCI-H23) [µM] | IC50 (A549) [µM] | IC50 (GTPase KRas) [µM] | Activity [1] | Activity [2] | Activity [3] | DC50 [4] [µM] | DC50 [5] [µM] | Activity [6] | Activity [7] | DC50 [8] [µM] | DC50 [9] [µM] | Activity [10]
1 | C=CC(=O)N1CCN(c2nc(=O)n(-c3c(C)ccnc3C(C)C)c3nc(-c4c(O)cccc4F)c(F)cc23)[C@@H](C)C1 [SOTORASIB] | 0.0084 | 0.112 | 50 | – | – | – | – | – | – | – | – | – | – | –
2 | CN1CCC[C@H]1COc1nc2c(c(N3CCN(C(=O)C(C#N)=CC4CC4)[C@@H](CC#N)C3)n1)CCN(c1cccc3cccc(Cl)c13)C2 | 4.7 | 5.25 | 13.3 | 0.0254 | Active | – | – | – | – | – | – | – | – | –
3 | CN1CCC[C@H]1COc1nc2c(c(N3CCN(C(=O)C(C#N)=CC(C)(C)C)[C@@H](CC#N)C3)n1)CCN(c1cccc3cccc(Cl)c13)C2 | 0.796 | 6.33 | 16.1 | 0.64 | – | – | – | – | – | – | – | – | – | –
4 | CC=C(C#N)C(=O)N1CCN(c2nc(OC[C@@H]3CCCN3C)nc3c2CCN(c2cccc4cccc(Cl)c24)C3)C[C@@H]1CC#N | 5.13 | 9.55 | 8.2 | 0.0963 | – | – | – | – | – | – | – | – | – | –
5 | Cc1ncsc1-c1ccc(CNC(=O)[C@@H]2C[C@@H](O)CN2C(=O)[C@@H](NC(=O)CCOCCCN2CCC[C@H]2COc2nc3c(c(N4CCN(C(=O)/C(C#N)=C/C5CC5)[C@@H](CC#N)C4)n2)CCN(c2cccc4cccc(Cl)c24)C3)C(C)(C)C)cc1 | 0.154 | 0.244 | – | – | – | Active | Active | 3.61 | 4.53 | Active | Active | 1.68 | 1.44 | Active
6 | CC(C)C=C(C#N)C(=O)N1CCN(c2nc(OC[C@@H]3CCCN3C)nc3c2CCN(c2cccc4cccc(Cl)c24)C3)C[C@@H]1CC#N | 13.7 | 3.15 | 50 | 0.284 | – | – | – | – | – | – | – | – | – | –
7 | CCC=C(C#N)C(=O)N1CCN(c2nc(OC[C@@H]3CCCN3C)nc3c2CCN(c2cccc4cccc(Cl)c24)C3)C[C@@H]1CC#N | 13.4 | 7.4 | 25.3 | 0.271 | – | – | – | – | – | – | – | – | – | –
